Source: patent publication US7626076B2, “Transgenic mouse whose genome comprises a homozygous disruption of its α1G gene, a method of preparing the same and use thereof” (Orient Bio., Inc., priority 2002, dated 2009)

Key:
Assay type in all cases: in vivo, mouse
[1] = system: wild-type and α1G −/− mice; assay: SWD generation in epidural EEG after systemic injection of absence seizure-inducing agents; conditions: for SWD generation in epidural EEG: α1G −/− mice
Text: To examine the role of α1G in the generation of SWDs in vivo, the present inventors systematically [“systemic” and “systematic” are different] injected into α1G −/− mice and wild-type mice either γ-butyrolactone, a prodrug of γ-hydroxybutyric acid, or (RS)-baclofen. Absence seizures induced by these drugs are characterized by bilaterally synchronous SWDs and have been associated with behavioral arrest, facial myoclonus, and vibrissal twitching.

[2] = system: wild-type and α1G −/− mice; assay: Thalamic field activity (depth electrodes) and epidural EEG after (RS)-baclofen in freely moving animals; conditions: 30 mg/kg i.p.
Method: To confirm the result of Example 6, the present inventors examined the field activity of thalamic nuclei using depth electrodes in freely moving animals. […] To examine the thalamic SWDs, the present inventors injected (RS)-baclofen i.p. at 30 mg/kg instead of the dose, i.e., 20 mg/kg, used previously (FIG. 4B). […] The administration of baclofen synchronized all thalamic activities into 2-3 Hz SWDs in wild-type nice (FIG. 5B, left). In the α1G −/− thalamus, however, baclofen reduced the amplitudes of peaks in a wide range of frequency, as if it caused general desynchronization (FIG. 5B, right).

[3] = system: wild-type and α1G −/− mice; assay: Convulsive seizures induced by 4-AP (EEG and behavioral seizure score)
Text: The present inventors tested whether the seizure resistance of α1G −/− mice was specific to absence seizures. […] The EEG pattern of these ictal discharges was quite different from that observed in the spike-and-wave seizures induced by baclofen or bicuculline.
The below scores grade the seizures according to behavioral seizures as monitored by video.
1: mild tremors of the head
2: whole body tremors with loss of postural control
3: erratic running, erratic jumping, or tonic-clonic movement of the limbs
4: tonic extension of the whole body or death

[4] = system: wild-type and α1G −/− mice; assay: EEG recording of cortex and thalamus after injection of BMB; conditions: 10 mg/kg into the peritoneal cavity
Method: Systematic administration or focal injection of bicuculline into the cortex has been known to evoke SWDs mainly originating from the territory of the cortex (Steriade and Contreras, Journal of Neurophysiology, 1998, 80, 1439-55). To determine the role of α1G in the cortex-dependent mechanism of SWDs, the present inventors examined the EEG pattern after injection of BMB into the peritoneal cavity of mice at 10 mg/kg.
However, because of the complexity of the bicuculline-induced seizures, the present inventors could not conclude whether there is any quantitative difference in the amplitude of the SWDs or in the time lag of SWD occurrences for the two types of mice (i.e., wild-type and α1G −/−). […] Thus, it seems that the BMB-induced SWDs observed here are also associated with other types of generalized seizures.

NCC(CC(=O)O)c1ccc(Cl)cc1 (racemic) [(RS)-baclofen]
frequency of SWDs in epidural EEG ([1]; wild-type mice, 20 mg/kg): 3-4 Hz | SWD generation in epidural EEG ([1]; 20 mg/kg): marked resistance to the generation of SWDs | frequency of SWDs in epidural EEG ([2]; duration of SWDs significantly increased versus 20 mg/kg): 2-3 Hz | frequency of SWDs in thalamus (field recording) ([2]; wild-type thalamus): 2-3 Hz | SWD generation in thalamus (field recording) ([2]; α1G −/− thalamus): no such synchronized activities were observed

Nc1ccncc1 [4-AP, 4-aminopyridine]
mice that developed seizures ([3]; 2 mg/kg into the peritoneal cavity, C57BL/6J and 129/sv): 25% | mice that developed tonic-clonic seizures ([3]; 10 mg/kg into the peritoneal cavity, C57BL/6J and 129/sv): All of the mice | time to vigorous ictal discharges after injection ([3]; 10 mg/kg, both wild-type and α1G −/− mice): 30 to 40 min | severity of induced seizures graded by behavioral symptoms, wild-type versus α1G −/− mice ([3]; seizure score 0-4, 2 mg/kg and 10 mg/kg): no quantitative difference

C[N+]1(C)CCc2cc3c(cc2[C@H]1[C@@H]1OC(=O)c2c1ccc1c2OCO1)OCO3.[Br-] [BMB, bicucullinemethobromide]
time to initiation of seizure spikes in the cortex [4]: within five minutes | SWD generation in EEG ([4]; α1G −/− mice): exhibited SWD-like activities

O=C1CCCO1 [γ-butyrolactone]
frequency of paroxysmal SWDs in epidural EEG ([1]; wild-type mice, 70 mg/kg): 3-5 Hz | SWD generation in epidural EEG ([1]; 70 mg/kg): did not display typical SWD patterns
